Values after ≈ are worked out from the molar mass of the structure shown. “Also recorded” adds a separate entry of the source. Where a SMILES comes first, the peptide text is derived from it. Where no end group is shown, it is not given here. [ ]: non-standard residue; d: D form.
Legend:
B. pseudomallei = settings: cited from earlier work
B. thailandensis biofilm = type: cell-based, Burkholderia thailandensis
B. thailandensis (E264) = settings: pH 7.4
[1] = tested on: B. thailandensis E264 pre-formed biofilm; type: cell-based, Burkholderia thailandensis; settings: n = 8
[2] = tested on: multiple Burkholderia species; settings: cited from earlier work

## bactenecin
B. pseudomallei
  antimicrobial activity against B. pseudomallei: antimicrobial against B. pseudomallei

## GLKLRFEFSKIKGEFLKTPEVRFRDIKLKDNRISVQR [Scrambled LL-37]
B. thailandensis biofilm
  biofilm inhibition: did not inhibit biofilm; also recorded: did not show biofilm inhibition

## HNP-3
B. thailandensis (E264)
  antimicrobial activity / whether an EC50 could be determined: could not be calculated because the peptide was ineffective

## KRAKKFFKKLK-NH2 [ATRA-1A]
B. thailandensis (E264); 3 h
  EC50: 9.83 µM

## HNP-4 (VCSCRLVFCRRTELRVGNCLIGGVSFTYCCTRV; ends and bridges not checked; cysteine pairing not given here; UniProt P12838 64-96, looked up)
B. thailandensis (E264)
  antimicrobial activity / whether an EC50 could be determined: could not be calculated because the peptide was ineffective

## RGRKSSRRKK [Peptide 4 of hBD-3]
B. thailandensis (E264)
  antimicrobial activity / whether an EC50 could be determined: could not be calculated because the peptide was ineffective
  killing of B. thailandensis at highest concentration tested: 65%

## KRFKKFFKKLK [ATRA-1]
B. thailandensis (E264); 3 h
  EC50: 6.94 µM

## CC(C)C[C@@H](NC(=O)[C@@H](CCCCN)NC(=O)[C@@H](CCCCN)NC(=O)[C@@H](Cc1ccccc1)NC(=O)[C@@H](Cc1ccccc1)NC(=O)[C@@H](CCCCN)NC(=O)[C@@H](CCCCN)NC(=O)[C@@H](C)NC(=O)[C@@H](CCCNC(=N)N)NC(=O)[C@H](N)CCCCN)C(=O)N[C@H](CCCCN)C(N)=O [D-ATRA-1A] (H-[dK][dR][dA][dK][dK][dF][dF][dK][dK][dL][dK]-NH2; N-terminus and C-terminus assumed)
B. thailandensis biofilm
  biofilm inhibition: did slightly, but only at the highest concentration of peptide tested (300 μg/ml); also recorded: Minimal biofilm inhibition
[1]
  dispersion of pre-formed biofilm: no biofilm dispersion activity
B. thailandensis (E264); 3 h
  EC50: 4.82 µM
  EC50 (μg/ml): 6.86 µg/mL (≈ 4.83 µM)

## CC(C)(O/N=C(\C(=O)N[C@@H]1C(=O)N2C(C(=O)[O-])=C(C[n+]3ccccc3)CS[C@H]12)c1csc(N)n1)C(=O)O [Ceftazidime]
B. thailandensis biofilm
  biofilm inhibition: did not inhibit biofilm production; also recorded: did not show biofilm inhibition

## KRAKKFFKKPK [ATRA-2]
B. thailandensis biofilm
  biofilm inhibition: did not inhibit biofilm formation; also recorded: not biofilm inhibition
[1]
  dispersion of pre-formed biofilm: no biofilm dispersion activity

## hBD-3 (GIINTLQKYYCRVRGGRCAVLSCLPKEEQIGKCSTRGRKCCRRKK; ends and bridges not checked; cysteine pairing not given here; UniProt P81534 23-67, looked up)
[2]
  LD50 against multiple Burkholderia species: > 100 µg/mL

Source: article PMC4510350 (PLoS Neglected Tropical Diseases, 2015)
